Key:
Assay type in all cases: cell-based
[1] = test system: Rabbit spleen cells (RK-13 cells used for determination); test: IF induction in vitro, rabbit cells; conditions: 1.0 μg/ml, 25 °C 24 h
Experimental: (§1) (A) IF induction and determination of IF activity:
(§2) A spleen cell suspension (10^7 cells/ml) was prepared by the method of hereinafter described Experiment 1 using an Eagle MEM medium (commercial product of Nissui Seiyaku K.K., Tokyo) containing a 10% calf serum (which was replaced by a 10% fetal cattle serum in the cases of human tests), each of which fraction (1 ml) was added with the sample of the active substance at a given concentration and incubated at a given temperature. The cultured liquor was centrifuged to separate a supernatant for use to determine the IF activity. Furthermore, in the cases of human tests, the fresh spleen was collected from a person (adult killed by external wounds) and used for the preparation of a leucocytes suspension on each occasion, and also blood was collected from the vein at the armpit of a person (adult, healthy) from which the serum was separated to use for the preparation of a serum suspension on each occasion. The IF activities were determined by using the cells shown in Table 5 by the method of hereinafterdescribed Experiment 1 and indicated in Table 6.

[2] = test system: Human spleen cells (FL cells used for determination); test: IF induction in vitro, human spleen cells; conditions: 1.0 μg/ml, 25 °C 24 h
Experimental: as §1, §2

[3] = test system: Mouse spleen cells (L cells used for determination); test: IF induction in vitro, mouse cells; conditions: 1.0 μg/ml, 37 °C 24 h
Experimental: as §1, §2

Substance: Poly: IC
- IF activity in vitro [1]: 220
- IF activity in vitro [2]: < 5
- IF activity in vitro [3]: 120

From US4442087A (priority 1979, dated 1984)
